Source: patent US4438131A, “.OMEGA.-Cyano-1, .OMEGA.-diphenyl-azaalkane derivatives, their preparation and drugs containing them” (BASF Aktiengesellschaft, priority 1981, dated 1984)
Where two headings read alike, the source gives them in different places.

Tests used:
[1] = system: passive cutaneous anaphylaxis (PCA); assay: Antiallergic action, passive cutaneous anaphylaxis (PCA) in rats, oral; format: in vivo, rat (male); conditions: for % inhibition (diameter of colored spot, PCA): 21.5 mg/kg oral
Description: The model of passive cutaneous anaphylaxis (PCA) was used for this test.
Anesthetized male rats (100-140 g) were sensitized by intradermal injection (shaven dorsal skin) of 0.1 ml of an ovalbumin antiserum. After a sensitizing period of about 48 hours, they were treated with the test substances (oral administration). After various latency periods (2, 6, 12 and 24 hours), the experimental animals were injected intravenously with an antigen/Evans blue solution. The animals were sacrificed in each case 30 minutes after the injection, and the dorsal skin was removed and the circular blue stain on the inner surface measured.
The antiallergic action was quoted as the relative inhibition (Δ%) of the diameter of the colored spot.

systolic blood pressure = assay: Antihypertensive action, spontaneously hypertensive rats (SHR), oral; format: in vivo; conditions: for ED20: Rattus norvegicus, po, read-out: Lowering of systolic blood pressure, ED 20%; for ED20 / Lowering of systolic blood pressure, R.A. (relative activity; verapamil = 1.00): SHR, peroral; for Antihypertensive action (in words): after 24 hours, SH rats, verapamil at 100 mg/kg
Description: The substances were administered orally to male spontaneously hypertensive rats (SHR) of the Okamoto strain (weight: 300-400 g). The systolic blood pressure was determined non-operatively on the tails of the rats by piezo-crystal measurements before and 2, 6, 24 and, where relevant, 30 hours after administration.
The dose which reduced the systolic pressure by 20%, taking into consideration the values from untreated control animals, was taken as the ED 20%.

[2] = system: collagen-induced platelet aggregation; assay: Platelet aggregation-inhibiting action after oral administration to rats; conditions: Rattus norvegicus, 1 h, read-out: Inhibition of aggregation, ED 33%
Description: The substances were administered orally to male Sprague-Dawley rats (200-250 g). 1 hour after administration, samples of blood were taken under ether anesthetic, and platelet-rich plasma was obtained by centrifugation (300 g, 10 minutes at 4° C.). The platelet aggregation was measured photometrically, with the addition of MgCl2 and (end concentration of 10 mmoles/l) and Collagen Stago (end concentration of 0.02 mg/ml), in a Mark 3 Born Aggregometer. The maximum change in extinction/second was used as a measure of the aggregation.

[3] = system: creatine phosphate concentration in the myocardium; assay: Cardio-protective action against hypoxic cardiac metabolism disorders, oral, rats; format: in vivo, rat (Wistar); conditions: compounds 2-40 mg/kg, verapamil up to 40 mg/kg
Description: A drastic depletion of energy-rich phosphates in the mycocardium of anesthetized rats (Wistar, weight: 250-350 g, anesthetic: thiobutabarbital 100 mg/kg i.p.) was produced by standardized respiration with an oxygen-deficient mixture (2% of O2).
The test substances were administered to the still conscious animals 6 hours before the oxygen-deficient respiration. The percentage difference between the creatine phosphate concentration in the myocardium of animals pretreated with the test substance and that of the untreated hypoxic control animals was determined.

| Molecule | ED20 (systolic blood pressure; 2 hrs) | ED20 (systolic blood pressure; 6 hrs) | ED33 [2] | Lowering of systolic blood pressure, R.A. (relative activity; verapamil = 1.00) (systolic blood pressure; 2 hrs) | ED20 (systolic blood pressure; 24 hrs) | Lowering of systolic blood pressure, R.A. (relative activity; verapamil = 1.00) (systolic blood pressure; 6 hrs) | other results |
| --- | --- | --- | --- | --- | --- | --- | --- |
| COc1ccc(CCN(C)CCCC(C#N)(c2ccc(OC)c(OC)c2)C(C)C)cc1OC (stereo not drawn) [Verapamil, 1,7-bis-(3,4-dimethoxyphenyl)-3-methylaza-7-cyano-8-methyl-nonane, reference compound] | 23.2 mg/kg | 20.6 mg/kg |  |  |  |  | % inhibition (diameter of colored spot, PCA) ([1]; latency period 2 hours): 53%; % inhibition (diameter of colored spot, PCA) ([1]; latency period 6 hours): 50%; % inhibition (diameter of colored spot, PCA) ([1]; latency period 12 hours): 33%; % inhibition (diameter of colored spot, PCA) ([1]; latency period 24 hours): 31%; Antihypertensive action (in words) (systolic blood pressure): ineffective |
| CCCCCCCCCCCCC(C#N)(CCCNCCc1cccc(OC)c1)c1cccc(OC)c1 (stereo not drawn) [Example 75, 1,7-bis-(3-Methoxyphenyl)-3-aza-7-cyano-nonadecane] |  |  | 90.2 mg/kg |  |  |  |  |
| CCCCCCCCCCCCC(C#N)(CCCN(C)CCc1cc(OC)cc(OC)c1)c1cccc(OCC)c1 (stereo not drawn) [Example 70, 1-(3,5-Dimethoxyphenyl)-3-methylaza-7-cyano-7-(3-ethoxyphenyl)-nonadecane] |  |  | 119 mg/kg |  |  |  |  |
| CCCCCCCCCCCCC(C#N)(CCCN(C)CCc1ccccc1)c1ccccc1 (stereo not drawn) [Example 5, 1,7-Diphenyl-3-methylaza-7-cyano-nonadecane] |  |  |  |  |  |  | Cardio-protective action (in words) [3]: particularly powerful action |
| 1-(3,5-Diethoxyphenyl)-3-methylaza-7-cyano-7-(3-ethoxyphenyl)-docosane [Example 68] |  |  |  |  |  |  | Cardio-protective action (in words) [3]: particularly powerful action |
| CCCCCCCCCCCCC(C#N)(CCCN(C)CCc1ccc(SCC)cc1)c1cccc(OC)c1 (stereo not drawn) [Example 42, 1-(4-Ethylmercaptophenyl)-3-methylaza-7-cyano-7-(3-methoxyphenyl)-nonadecane] | 0.3 mg/kg |  |  | 2.25 | 58.3 mg/kg |  |  |
| CCCCCCCCCCCCCCCC(C#N)(CCCN(C)CCc1cccc(OC)c1)c1cccc(OC)c1 (stereo not drawn) [Example 6, 1,7-bis-(3-Methoxyphenyl)-3-methylaza-7-cyano-docosane] |  |  | 49 mg/kg |  |  |  |  |
| CCCCCCCCCCCCC(C#N)(CCCN(C)CCc1cccc(OC)c1)c1cccc(OC)c1 (stereo not drawn) [Example 3, 1,7-bis-(3-Methoxyphenyl)-3-methylaza-7-cyano-nonadecane] | 24.9 mg/kg | 14.1 mg/kg | 9.6 mg/kg | 0.93 | 18.7 mg/kg | 1.46 | % inhibition (diameter of colored spot, PCA) ([1]; latency period 2 hours): 15%; % inhibition (diameter of colored spot, PCA) ([1]; latency period 6 hours): 40%; % inhibition (diameter of colored spot, PCA) ([1]; latency period 12 hours): 83%; % inhibition (diameter of colored spot, PCA) ([1]; latency period 24 hours): 68%; Antiallergic action (in words) ([1]; after oral administration): long-lasting antiallergic action; Antiallergic action compared with verapamil (in words) ([1]; latency periods of 12 and 24 hours, oral): substantially more powerful action; Antihypertensive action (in words) (systolic blood pressure): still have an antihypertensive action; Cardio-protective action (in words) [3]: particularly powerful action |
| CCCCCCCCCCCCC(C#N)(CCCN(C)CCc1cccc(OC)c1)c1cc(OC)c(OC)c(OC)c1 (stereo not drawn) [Example 20, 1-(3-Methoxyphenyl)-3-methylaza-7-cyano-7-(3,4,5-trimethoxyphenyl)-nonadecane] | 3.7 mg/kg | 6.6 mg/kg |  | 6.27 | 12.5 mg/kg | 3.12 | Antihypertensive action (in words) (systolic blood pressure): still have an antihypertensive action |
| CCCCCCCCCCCC(C#N)(CCCN(C)CCc1cccc(OC)c1)c1cccc(OC)c1 (stereo not drawn) [Example 25, 1,7-bis-(3-Methoxyphenyl)-3-methylaza-7-cyano-octadecane] | 6.8 mg/kg | 10.2 mg/kg |  | 3.41 | 46.4 mg/kg | 2.02 |  |
| CCCCCCCCCCCCC(C#N)(CCCN(C)CCc1cccc(OC)c1)c1ccc(OC)c(OC)c1 (stereo not drawn) [Example 19, 1-(3-Methoxyphenyl)-3-methylaza-7-cyano-7-(3,4-dimethoxyphenyl)-nonadecane] | 7.5 mg/kg | 19.8 mg/kg |  | 3.09 | 46.4 mg/kg | 1.04 |  |
